Test results from patent US8119624B2, “Fused phenyl amido heterocyclic compounds” (Pfizer Inc., priority 2006, dated 2012).
Where two headings read alike, the source gives them in different places.

Biological target: T1, Full-length glucokinase (beta cell isoform) (Homo sapiens, UniProt P35557)
T1 construct: Full-length glucokinase (beta cell isoform) was His-tagged at N-terminus; His tag (N); made in house
T1 sequence (P35557 1-465): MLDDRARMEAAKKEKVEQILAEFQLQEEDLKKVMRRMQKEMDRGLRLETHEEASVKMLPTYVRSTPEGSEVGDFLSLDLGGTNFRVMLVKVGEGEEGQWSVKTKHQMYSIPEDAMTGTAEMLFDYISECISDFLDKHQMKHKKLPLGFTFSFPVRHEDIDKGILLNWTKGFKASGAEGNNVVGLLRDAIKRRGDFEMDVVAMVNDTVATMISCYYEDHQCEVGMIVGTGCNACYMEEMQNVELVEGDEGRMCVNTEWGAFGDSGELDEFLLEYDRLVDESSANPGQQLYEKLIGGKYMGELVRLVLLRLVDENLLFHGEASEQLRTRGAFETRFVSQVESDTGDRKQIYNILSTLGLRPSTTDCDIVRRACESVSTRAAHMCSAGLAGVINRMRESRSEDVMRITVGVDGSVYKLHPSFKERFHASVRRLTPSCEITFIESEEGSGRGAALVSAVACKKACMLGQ
Experiment: Glucokinase biochemical assay (PK/LDH-coupled, NADH depletion at 340 nm): % activation, EC50, % max activation
Settings: 5 mM glucose; for activation at 10 µM: read-out: % Activation at 10 uM; for EC50: read-out: EC50; for Emax: read-out: % Max Activation
In short: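 Activation expressed as (Va/Vo−1)×100, where initial rates with and without compound come from NADH depletion at 340 nm over 200–900 s. Enzyme is His-tagged human beta-cell GK, full length, run at room temperature in HEPES buffer with 1 mM ATP and 5 mM glucose. DMSO 1%.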

[1] = 10 uM compound, % Activation=(Va/Vo−1)×100
[2] = compound at 10 uM, 1 mM ATP, room temperature
[3] = fitted maximum activation, 1 mM ATP

Row | activation at 10 µM [1] [%] | EC50 (GK activation) [nM] | Emax (fitted maximum activation) [%] | SMILES | other results
1 | 181 | 410 | 167 | CC(C)NC(=O)c1ccc(Oc2cc(C(=O)Nc3ccn(C)n3)cc3c2CC(C)(C)O3)cc1F [Example 71, 4-(3-Fluoro-4-isopropylcarbamoyl-phenoxy)-2,2-dimethyl-2,3-dihydro-benzofuran-6-carboxylic acid(1-methyl-1H-pyrazol-3-yl)-amide] | 
2 | 239 | 97 | 257 | CCS(=O)(=O)c1ccc(Oc2cc(C(=O)Nc3cnn(C)n3)cc3c2CC(C)(C)O3)cc1F [Example 135, 4-(4-Ethanesulfonyl-3-fluoro-phenoxy)-2,2-dimethyl-2,3-dihydro-benzofuran-6-carboxylic acid (2-methyl-2H-[1,2,3]triazol-4-yl)-amide] | 
3 | 185 | 89 | 160 | Cn1ccc(NC(=O)c2cc(Oc3ccc(S(=O)(=O)C4CC4)cc3)c3c(c2)OC(C)(C)C3)n1 [Example 129, 4-(4-Cyclopropanesulfonyl-phenoxy)-2,2-dimethyl-2,3-dihydro-benzofuran-6-carboxylic acid (1-methyl-1H-pyrazol-3-yl)-amide] | 
4 | 161 | 1700 | 188 | CN(C)C(=O)c1cc2c(Oc3ccc(S(C)(=O)=O)cc3)cc(C(=O)Nc3cnn(C)n3)cc2o1 [Example 288, N2,N2-Dimethyl-4-[4-(methylsulfonyl)phenoxy]-N6-(2-methyl-2H-1,2,3-triazol-4-yl)-1-benzofuran-2,6-dicarboxamide] | 
5 |  | 850 |  | COCC1Cc2c(Oc3ccc(C(=O)N4CCC4)cc3)cc(C(=O)Nc3ccn(C)n3)cc2O1 (single isomer, unassigned; (+)) [Example 210, (+)-4-[4-(Azetidine-1-carbonyl)-phenoxy]-2-methoxymethyl-2,3-dihydro-benzofuran-6-carboxylic acid (1-methyl-1H-pyrazol-3-yl)-amide] | % Activation at 10 uM [1]: 130%; % Max Activation (fitted maximum activation): 143%
6 |  |  |  | CC(C)CN1Cc2c(Oc3ccc(S(C)(=O)=O)cc3)cc(C(=O)Nc3ccn(C)n3)cc2C1=O [Example 382, 2-Isobutyl-N-(1-methyl-1H-pyrazol-3-yl)-7-(4-(methylsulfonyl)-phenoxy)-3-oxoisoindoline-5-carboxamide] | EC50 (1 mM ATP, room temperature): 9300 nM; activation at 10 µM [2]: 82%; Emax [3]: 156%
7 | 16.7 |  |  | Cn1ncc(NC(=O)c2cc(Oc3ccc(S(C)(=O)=O)cc3)c3cc(C(=O)N4CCC4)oc3c2)n1 [Example 292, 2-(Azetidin-1-ylcarbonyl)-4-[4-(methylsulfonyl)phenoxy]-N-(2-methyl-2H-1,2,3-triazol-4-yl)-1-benzofuran-6-carboxamide] | 
8 | 150 | 3500 | 150 | Cn1ccc(NC(=O)c2cc(OCc3noc(C(C)(C)C)n3)c3c(c2)OC(C)(C)C3)n1 [Example 91, 4-(5-tert-Butyl-[1,2,4]oxadiazol-3-ylmethoxy)-2,2-dimethyl-2,3-dihydro-benzofuran-6-carboxylic acid (1-methyl-1H-pyrazol-3-yl)-amide] | 
9 | 4 |  |  | Cc1ccc(NC(=O)c2cc(Oc3ccc(C(=O)N(C)C)c(F)c3)c3sccc3c2)nc1 [Example 365, 7-(4-(Dimethylcarbamoyl)-3-fluorophenoxy)-N-(5-methylpyridin-2-yl)benzo[b]thiophene-5-carboxamide] | 
10 | 34.2 |  |  | Cc1ccc(NC(=O)c2cc(Oc3ccc(C(=O)N(C)C)nc3)c3cc(C)oc3c2)nc1 [Example 277, N,N-Dimethyl-5-[(2-methyl-6-{[(5-methylpyridin-2-yl)amino]-carbonyl}-1-benzofuran-4-yl)oxy]pyridine-2-carboxamide] | 
11 | 98.7 | 1100 | 122 | Cc1ccc(NC(=O)c2cc(Oc3ccc(S(C)(=O)=O)cc3)c3c(c2)OC(C)C3)nc1 (stereo not drawn) [Example 10, 4-(4-Methanesulfonyl-phenoxy)-2-methyl-2,3-dihydro-benzofuran-6-carboxylic acid(5-methyl-pyridin-2-yl)-amide] | 
12 | 82.6 | 810 | 91 | Cc1ccc(NC(=O)c2cc(Oc3ccc(C(=O)N4CCC4)c(F)c3)c3c(c2)OC(CO)C3)nc1 (stereo not drawn) [Example 203, 4-[4-(Azetidine-1-carbonyl)-3-fluoro-phenoxy]-2-hydroxymethyl-2,3-dihydro-benzofuran-6-carboxylic acid (5-methyl-pyridin-2-yl)-amide] | 
13 | 213 | 506 | 192 | Cn1ccc(NC(=O)c2cc(Oc3ccc(S(C)(=O)=O)cc3)c3c(c2)OC(C)(C)C3)n1 [Example 16, 4-(4-Methanesulfonyl-phenoxy)-2,2-dimethyl-2,3-dihydro-benzofuran-6-carbo-xylic acid(1-methyl-1H-pyrazol-3-yl)-amide] | 
14 | 12.7 |  |  | Cn1ccc(NC(=O)c2cc(Oc3ccc(S(C)(=O)=O)cc3)c3cc(C(=O)N4CCC4)oc3c2)n1 [Example 291, 2-(Azetidin-1-ylcarbonyl)-N-(1-methyl-1H-pyrazol-3-yl)-4-[4-(methylsulfonyl)-phenoxy]-1-benzofuran-6-carboxamide] | 
15 | 113 | 160 | 158 | Cc1ccc(NC(=O)c2cc(OC(C)C)cc3oc(-c4ccccc4)cc23)nc1 [Example 347, 6-Isopropoxy-N-(5-methylpyridin-2-yl)-2-phenylbenzofuran-4-carboxamide] | 
16 | 112 | 640 | 137 | Cn1ccc(NC(=O)c2cc(Oc3ccc(C(=O)N4CCC4)cc3)c3c(c2)OC(C(F)F)C3)n1 (stereo not drawn) [Example 226, 4-[4-(Azetidine-1-carbonyl)-phenoxy]-2-difluoromethyl-2,3-dihydro-benzofuran-6-carboxylic acid (1-methyl-1H-pyrazol-3-yl)-amide] | 
17 | 233 | 770 | 251 | CCNC(=O)c1ncc(Oc2cc(C(=O)Nc3ccn(C)n3)cc3c2CC(C)(C)O3)cc1NCC [Example 175, 5-[2,2-Dimethyl-6-(1-methyl-1H-pyrazol-3-ylcarbamoyl)-2,3-dihydro-benzofuran-4-yloxy]-3-ethylamino-pyridine-2-carboxylic acid ethylamide] | 
18 |  |  |  | Cc1ccc(NC(=O)c2cc(Oc3ccc(S(C)(=O)=O)cc3)c3c(c2)C(=O)N(C2CC2)C3)nc1 [Example 385, 2-Cyclopropyl-N-(5-methylpyridin-2-yl)-7-(4-(methylsulfonyl)-phenoxy)-3-oxoisoindoline-5-carboxamide] | EC50 (1 mM ATP, room temperature): 4500 nM; activation at 10 µM [2]: 93.2%; Emax [3]: 107%
19 | 80.3 | 562 | 169 | COc1cnc(NC(=O)c2cc(Oc3ccc(S(C)(=O)=O)cc3)c3cc(C(=O)N(C)C)oc3c2)cn1 [Example 287, N6-(5-Methoxypyrazin-2-yl)-N2,N2-dimethyl-4-[4-(methylsulfonyl)phenoxy]-1-benzofuran-2,6-dicarboxamide] | 
20 | 36.3 | 4000 | 54 | Cc1cc(NC(=O)c2cc(Oc3ccc(C(=O)N(C)C)cc3)c3c(c2)OC(C)(C)C3)no1 [Example 154, 4-(4-Dimethylcarbamoyl-phenoxy)-2,2-dimethyl-2,3-dihydro-benzofuran-6-carboxylic acid (5-methyl-isoxazol-3-yl)-amide] | 
21 | 198 | 620 | 230 | Cn1ncc(NC(=O)c2cc(Oc3ccc(-c4ncon4)cc3)c3c(c2)OC(C)(C)C3)n1 [Example 188, 2,2-Dimethyl-4-(4-[1,2,4]oxadiazol-3-yl-phenoxy)-2,3-dihydro-benzofuran-6-carboxylic acid (2-methyl-2H-[1,2,3]triazol-4-yl)-amide] | 
22 | 46.9 | 360 | 50 | COc1ccnc(NC(=O)c2cc(Oc3ccc(S(=O)(=O)N4CCC4)cc3)c3cc(C)oc3c2)c1 [Example 295, 4-(4-(Azetidin-1-ylsulfonyl)phenoxy)-N-(4-methoxypyridin-2-yl)-2-methyl-benzofuran-6-carboxamide] | 
23 | 47.8 | 179 | 50 | Cc1cc(NC(=O)c2cc(Oc3ccc(C(=O)N(C)C)c(F)c3)c3c(c2)OC(C)(C)C3)no1 [Example 143, 4-(4-Dimethylcarbamoyl-3-fluoro-phenoxy)-2,2-dimethyl-2,3-dihydro-benzofuran-6-carboxylic acid (5-methyl-isoxazol-3-yl)-amide] | 
24 | 62 | > 10000 |  | CC(=O)N1CC(Oc2cc(C(=O)Nc3ccn(C)n3)cc3c2CC(C)(C)O3)C1 [Example 196, 4-(1-Acetyl-azetidin-3-yloxy)-2,2-dimethyl-2,3-dihydro-benzofuran-6-carboxylic acid (1-methyl-1H-pyrazol-3-yl)-amide] | 
